Tests used:
[1] = system: CFTR in G551D/F508del HBEs; assay: Ussing measurements, G551D/F508del HBEs; assay type: cell-based, human; conditions: genotype G551D/F508del
Description: (§1) As discussed above, Ussing measurements was used to measure CFTR activity. In this method, primary lung epithelial cells (hBEs) with a Cystic Fibrosis-causing class III mutation were differentiated for a minimum of 4 weeks in an air-liquid interface on SnapWell™ filter plates prior to the Ussing measurements. Cells were apically mucus-washed for 30 minutes prior to treatment with compounds. The basolateral media was removed and replaced with media containing the compound of interest diluted to its final concentration from DMSO stocks. Treated cells were incubated at 37° C. and 5% CO2 for 24 hours. At the end of the treatment period, the cells on filters were transferred to the Ussing chamber and equilibrated for 30 minutes. The short-circuit current was measured in voltage clamp-mode (Vhold=0 mV), and the entire assay was conducted at a temperature of 36° C.-36.5° C. Once the voltages stabilized, the chambers were clamped, and data was recorded by pulse readings every 5 seconds. Following baseline current stabilization, the following additions were applied and the changes in current and resistance of the cells was monitored: • 1. Benzamil to the apical chamber to inhibit ENaC sodium channel. • 2. Forskolin to both chambers to activate ΔF508-CFTR by phosphorylation. • 3. Ivacaftor or Genistein to the apical chamber to potentiate ΔF508-CFTR channel opening. • 4. CFTRinh-172 to the apical chamber to inhibit ΔF508-CFTR Cl-conductance.
(§2) The forskolin-sensitive current and inhibitable current (that potentiated current that is blocked by CFTRinh-172) were measured as the specific activity of the ΔF508-CFTR channel, and increase in response to compound in this activity over that observed in vehicle-treated samples were identified as the correction of ΔF508-CFTR function imparted by the compound tested.
(§3) The results are shown below in Tables 5 and 6. Compound A is 10 uM and VX-809 is 3 uM and ivacaftor is 1 uM.

[2] = biological target: T1, CFTR in G542X/F508del HBEs (Homo sapiens, UniProt P13569, DEL508-508); assay: Ussing measurements, G542X/F508del HBEs; assay type: cell-based; conditions: genotype G542X/F508del
T1 construct: endogenous in cells; host or cells: primary lung epithelial cells (hBEs), genotype G542X/F508del
Description: As discussed above, Ussing measurements were used to measure CFTR activity. In this method, primary lung epithelial cells (hBEs) with a Cystic fibrosis causing class I mutation were differentiated for a minimum of 4 weeks in an air-liquid interface on SnapWell™ filter plates prior to the Ussing measurements. Cells were apically mucus-washed for 30 minutes prior to treatment with compounds. The basolateral media was removed and replaced with media containing the compound of interest diluted to its final concentration from DMSO or aqueous stocks. Treated cells were incubated at 37° C. and 5% CO2 for 24 hours. […] The short-circuit current was measured in voltage clamp-mode (Vhold=0 mV), and the entire assay was conducted at a temperature of 36° C.-36.5° C. Once the voltages stabilized, the chambers were clamped, and data were recorded by pulse readings every 5 seconds. Following baseline current stabilization, the following additions were applied and the changes in current and resistance of the cells were monitored: • 1. […]
The forskolin-sensitive current and inhibitable current (that potentiated current that was blocked by CFTRinh-172) were measured as the specific activity of the ΔF508-CFTR channel, and increase in response to compound in this activity over that observed in vehicle-treated samples were identified as the correction of ΔF508-CFTR function imparted by the compound tested. […]

[3] = system: CFTR, genotype 3849 + 10kb C > T/N1303K; assay: CFTR activity by mutation type, 3849 + 10kb C > T/N1303K (Table 7); assay type: cell-based, human
[4] = biological target: T2, CFTR in F508/F508del HBEs (Homo sapiens, UniProt P13569, DEL508-508); assay: Ussing measurements, F508del/F508del HBEs; assay type: cell-based; conditions: genotype F508del/F508del
T2 construct: Activity in F508/F508del HBEs (relative); endogenous in cells; host or cells: primary lung epithelial cells (HBEs), genotype F508/F508del [sic]
Description: as §1, with “measurements were” for “measurements was”, “Cystic fibrosis causing” for “Cystic Fibrosis-causing”, “class I” for “class III”, “DMSO or aqueous” for “DMSO”, “data were” for “data was”, “cells were” for “cells was”
The forskolin-sensitive current and inhibitable current (that potentiated current that was blocked by CFTRinh-172) were measured as the specific activity of the ΔF508-CFTR channel, and increase in response to compound in this activity over that observed in vehicle-treated samples were identified as the correction of ΔF508-CFTR function imparted by the compound tested.
The results are shown below in Tables 3 and 4. Compound A is 10 uM and VX-809 is 3 uM and ivacaftor is 1 uM.

[5] = system: CFTR, genotype G542X/G542X; assay: CFTR activity by mutation type, G542X/G542X (Table 7); assay type: cell-based, human
[6] = system: CFTR in R117H/F508del HBEs; assay: Ussing measurements, R117H/F508del HBEs; assay type: cell-based, human; conditions: genotype R117H/F508del
Description: as §1, §2, §3

[7] = compound A 10uM + ivacaftor 1uM, relative activity of 100% = ivacaftor
[8] = compound A 10uM, relative activity of 100% = ivacaftor (1uM)
[9] = compound A 10uM + ivacaftor 1uM + lumacaftor 3 uM, relative activity of 100% = ivacaftor and lumacaftor
[10] = compound A 10uM, relative activity of 100% = ivacaftor (1uM) and lumacaftor (3 uM)

T2 sequence (P13569 with tags, fused parts or gaps DEL508-508): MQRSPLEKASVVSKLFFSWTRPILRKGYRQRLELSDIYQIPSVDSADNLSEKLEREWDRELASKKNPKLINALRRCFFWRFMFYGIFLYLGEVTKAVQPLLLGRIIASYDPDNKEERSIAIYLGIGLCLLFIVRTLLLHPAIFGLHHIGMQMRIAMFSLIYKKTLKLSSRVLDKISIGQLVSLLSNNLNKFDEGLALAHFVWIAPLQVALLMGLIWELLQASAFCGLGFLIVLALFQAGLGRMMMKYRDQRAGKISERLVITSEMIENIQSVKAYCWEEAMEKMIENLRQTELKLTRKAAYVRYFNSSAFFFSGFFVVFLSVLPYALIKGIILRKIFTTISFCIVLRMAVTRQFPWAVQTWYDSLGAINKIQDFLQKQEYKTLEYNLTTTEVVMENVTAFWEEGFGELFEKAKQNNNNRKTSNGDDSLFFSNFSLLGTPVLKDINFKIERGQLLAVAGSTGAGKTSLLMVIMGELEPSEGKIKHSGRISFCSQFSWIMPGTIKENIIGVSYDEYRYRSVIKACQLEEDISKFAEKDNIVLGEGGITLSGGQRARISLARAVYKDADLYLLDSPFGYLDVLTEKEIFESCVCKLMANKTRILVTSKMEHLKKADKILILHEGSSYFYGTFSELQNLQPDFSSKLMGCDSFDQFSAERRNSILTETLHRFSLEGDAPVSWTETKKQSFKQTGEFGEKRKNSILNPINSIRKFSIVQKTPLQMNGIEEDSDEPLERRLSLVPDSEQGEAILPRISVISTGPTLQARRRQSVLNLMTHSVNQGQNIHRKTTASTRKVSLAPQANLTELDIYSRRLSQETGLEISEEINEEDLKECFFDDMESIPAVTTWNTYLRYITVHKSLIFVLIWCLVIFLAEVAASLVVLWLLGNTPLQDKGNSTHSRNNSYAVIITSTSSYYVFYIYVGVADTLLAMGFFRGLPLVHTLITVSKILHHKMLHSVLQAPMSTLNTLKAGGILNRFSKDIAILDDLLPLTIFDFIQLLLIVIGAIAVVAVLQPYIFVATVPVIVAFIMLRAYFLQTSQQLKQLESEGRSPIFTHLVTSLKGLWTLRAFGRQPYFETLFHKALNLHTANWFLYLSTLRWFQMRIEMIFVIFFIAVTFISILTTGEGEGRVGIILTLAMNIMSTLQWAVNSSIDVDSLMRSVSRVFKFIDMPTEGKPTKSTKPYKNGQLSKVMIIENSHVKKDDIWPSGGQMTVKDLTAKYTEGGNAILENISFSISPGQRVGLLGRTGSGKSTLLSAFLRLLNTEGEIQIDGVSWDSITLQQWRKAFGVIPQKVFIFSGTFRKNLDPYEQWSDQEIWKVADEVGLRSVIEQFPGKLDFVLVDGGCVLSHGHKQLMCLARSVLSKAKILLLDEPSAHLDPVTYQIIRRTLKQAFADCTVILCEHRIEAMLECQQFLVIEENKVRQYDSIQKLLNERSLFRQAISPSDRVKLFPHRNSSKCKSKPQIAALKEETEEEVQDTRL
T1 sequence (P13569 with tags, fused parts or gaps DEL508-508): as above

C[C@@H](O)c1nnc([C@H]2C[C@H](NC(=O)c3cc(-c4ccccc4)no3)C2)o1 [Example 6, N-(trans-3-(5-((R)-1-hydroxyethyl)-1,3,4-oxadiazol-2-yl)cyclobutyl)-3-phenylisoxazole-5-carboxamide]
Combination with ivacaftor, activity [1, 7]: ++++ (++++ indicates activity at 10uM of >150% of the indicated relative activity treatment)
Stand Alone activity [1, 8]: + (+ indicates activity at 10uM of 15% to <50% of the indicated relative activity treatment)
Combination with ivacaftor and lumacaftor, activity [2, 9]: ++++ (++++ indicates activity at 10uM of >150% of the indicated relative activity treatment)
Stand Alone activity [2, 10]: + (+ indicates activity at 10uM of 15% to <50% of the indicated relative activity treatment)
Combination with ivacaftor, activity [3, 7]: +++ (+++ indicates activity at 10uM of 100% to <150% of the indicated relative activity treatment)
Stand Alone activity [3, 8]: ++ (++ indicates activity at 10uM of 50% to <100% of the indicated relative activity treatment)
Combination with ivacaftor and VX-661, activity ([4]; compound A 10uM + ivacaftor 1uM + VX-661 3 uM, relative activity of 100% = ivacaftor and VX-661): ++++ (++++ indicates activity at 10uM of >150% of the indicated relative activity treatment)
Combination with ivacaftor and lumacaftor, activity [4, 9]: ++++ (++++ indicates activity at 10uM of >150% of the indicated relative activity treatment)
Stand Alone activity [4, 10]: + (+ indicates activity at 10uM of 15% to <50% of the indicated relative activity treatment)
Combination with NB124, activity ([5]; compound A 10uM + NB124 250 ug/ml, relative activity of 100% = NB124): ++++ (++++ indicates activity at 10uM of >150% of the indicated relative activity treatment)
Stand Alone activity ([5]; compound A 10uM, relative activity of 100% = NB124 (250 ug/ml)): ++ (++ indicates activity at 10uM of 50% to <100% of the indicated relative activity treatment)
Combination with ivacaftor, activity [6, 7]: ++++ (++++ indicates activity at 10uM of >150% of the indicated relative activity treatment)
Stand Alone activity [6, 8]: +++ (+++ indicates activity at 10uM of 100% to <150% of the indicated relative activity treatment)
